# According to patent US9839594B2, “Skin-moisturising or wrinkle-improving external composition and cosmetic composition” (KOREA INSTITUTE OF ORIENTAL MEDICINE, priority 2012, dated 2017):
# Assays:
# Assay type in all cases: in vivo, hairless mice (male HR-1)
# [1] = tested on: back skin tissues of hairless mice; experiment: Histological observation of skin (H&E and Masson's trichome staining); details: 0.25% (w/v) topical, 12 weeks, UVB irradiation
# Description: (§1) 7-week old male hairless mice (male HR-1, hairless mice, Japan SLC, Inc.), the experimental animals, were purchased from Central Lab. Animal Inc (Seoul, Korea). and used after an adaption period of a week. Only healthy animals were used in the experiments by observing general conditions during the adaption period. The breeding environment was maintained at 23±3° C. with 50±5% humidity with a light-dark cycle of 12 hours (7:00-19:00/lighting time). During the experiments, seven experimental animals per each experimental group were raised in a polycarbonate cage (200×320×145 mm, Three-shine Co., Daejeon, Korea), and the animals were given both mouse feed 5L79 (Charles river, USA) and tap water for drinking sterilized with UV rays to be consumed freely.
# The experiments were carried out on the following groups: a control group (Con), a UV-treated group (UV), an excipient-treated group (Vehicle), and a group treated by the compound represented by Formula 1 (TM), and the samples were administered thereto. The sample administration was performed for 12 weeks in total by spreading the samples onto skins. For the compound treated group (TM), the compound was dissolved in dimethyl sulfoxide (DMSO), and subsequently in a mixed solution containing propylene glycol, ethanol, and poly ethylene glycol with a 1:1:1 ratio, and the dissolved formulation (the final concentration of the compound was 0.25% (w/v)) was applied to skins with the amount of 40 uL per 6 cm^2 once a day for 5 days a week. The excipient-treated group (Vehicle) were treated in the same manner as the compound treated group (TM), except the compound omitted.
# (§2) Ultraviolet irradiation was performed on the experimental groups except for the control group using a UVB lamp (Mineralight UV Display lamp, UVP, USA) three times a week for 8 weeks. […] The UV irradiance was measured by a radiometry instrument (Delta OHM, Italy), and then, was adjusted according to irradiation time. […]
# [2] = tested on: back skin tissues of hairless mice; experiment: Epidermis thickness measured in H&E-stained tissues; details: 0.25% (w/v) topical, 12 weeks; UVB irradiation; p<0.05
# Description: as §1, with “freely. […]” for “freely.”
# as §2
# The epidermis thickness was measured from the keratin layer to the epidermal basement membrane of tissues, which were stained with H&E in Experimental Example 3), by a ruler installed in a microscope, and the result is shown in FIG. 6.
# [3] = tested on: back skins of hairless mice; experiment: Transepidermal water loss (TEWL) analysis; details: 0.25% (w/v) topical, 12 weeks; UVB irradiation; Tewameter at 23° C., relative humidity 50%; p<0.01
# Description: 7-week old male hairless mice (male HR-1, hairless mice, Japan SLC, Inc.), the experimental animals, were purchased from Central Lab. Animal Inc (Seoul, Korea). and used after an adaption period of a week. Only healthy animals were used in the experiments by observing general conditions during the adaption period. The breeding environment was maintained at 23±3° C. with 50±5% humidity with a light-dark cycle of 12 hours (7:00-19:00/lighting time). […]
# (§3) Ultraviolet irradiation was performed on the experimental groups except for the control group using a UVB lamp (Mineralight UV Display lamp, UVP, USA) three times a week for 8 weeks. […] The UV irradiance was measured by a radiometry instrument (Delta OHM, Italy), and then, was adjusted according to irradiation time.
# To confirm the skin-moisturizing effect, the transepidermal water loss analysis was carried out with back skins of hairless mice in each experimental group. The transepidermal water loss level refers to the water quantity diffused from a skin, and if the level is high, it would mean that the skin moisturizing function is weakened, and that the function of innate skin barrier is damaged. […] The evaporated water quantity was then measured using Tewameter, and the skin moisturizing-ability was calculated.
# skins of hairless mice = experiment: Skin wrinkle measurement with silicone skin replica of back skin of UV-irradiated hairless mice; details: 12 weeks
# Description: as §1
# The experiments were carried out on the following groups: a control group (Con), a UV-treated group (UV), an excipient-treated group (Vehicle), and a group treated by the compound represented by Formula 1 (TM), and the samples were administered thereto. The sample administration was performed for 12 weeks in total by spreading the samples onto skins. […]
# as §3
# The degree of wrinkle formation was measured with a silicone skin replica of the back skins of the hairless mice of each experimental group. […] A shadow image, generated according to the thickness of the skin replica, was filed using a CCD camera, and the depth and length of wrinkles were measured using the Skin Visiometer VL 650 software, which is a computer image analysis system. […]
# [4] = compared to UV-treated group and excipient-treated group
structure (smiles),measurement,setting,value
C[C@H]1CCC2(OC1)OC1CC3C4CC[C@@H]5CC(OC6OC(CO)C(O)C(O)C6OC6OC(CO)C(O)C(O)C6O)CC[C@]5(C)C4CC[C@]3(C)C1[C@@H]2C (some centres unmarked) [compound represented by Formula 1],"collagen fibers (Masson's trichome staining, FIG. 5)",[1]; compared to UV-treated group,collagen fibers were increased
same,"cornified layers (H&E staining, FIG. 4)",[1]; [4],cornified layers were alleviated
same,"epidermis (H&E staining, observed, FIG. 4)",[1]; [4],thinner epidermises were observed
same,"epidermis thickness (keratin layer to epidermal basement membrane, FIG. 6)",[2],significantly reduced
same,"skin water loss induced by UV rays (transepidermal water loss, FIG. 7)",[3],significantly prevented
same,"degree of skin-wrinkle formation (skin replica image, FIG. 1)","skins of hairless mice; 0.25% (w/v) spread onto skin, 40 uL per 6 cm^2 once a day 5 days a week, UVB irradiation 8 weeks, compared to UV-treated group",thick wrinkles were alleviated
same,mean wrinkle length (FIG. 2),"skins of hairless mice; 0.25% (w/v) topical, UVB irradiation, compared to UV group and excipient-treated group (Vehicle), p<0.0001",significantly reduced
same,mean wrinkle depth (FIG. 3),"skins of hairless mice; 0.25% (w/v) topical, UVB irradiation, compared to UV-treated group, p<0.0001",significantly reduced
